Results published in patent US6664214B1, “Uracil compounds and use thereof” (Sumitomo Chemical Company, Limited, priority 1999, dated 2003).

Tests used:
ivyleaf morningglory [1] = test: Test Example 1: foliar treatment on upland field; assay type: in vivo, Ipomoea hederacea; conditions: 125 g/ha, 8 days after application
Method: (§1) In the examples, the compounds are identified by the Compound Numbers as in Tables 1 to 3.
(§2) A cylindrical plastic pot having a diameter of 10 cm and a depth of 10 cm was filled with soil and seeded with ivyleaf momingglory, velvetleaf and bamyardgrass. These test plants were grown in a greenhouse for 9 days. Then each of compounds 1-1, 2-1, 2-2, 3-1 and 3-101 was formulated into an emulsifiable concentrate according to Formulation Example 2 and then diluted to the prescribed amount with water containing a spreading agent and the dilution was uniformly sprayed over the foliage of the test plants with sprayer at a rate of 1000 liters per hectare. After the application, the test plants were grown in the greenhouse for 8 days, and the herbicidal activity were determined.

velvetleaf [2] = test: Test Example 1: foliar treatment on upland field; assay type: in vivo, Abutilon theophrasti; conditions: 125 g/ha, 8 days after application
Method: as §1, §2

barnyardgrass [3] = test: Test Example 1: foliar treatment on upland field; assay type: in vivo, Echinochloa crus-galli; conditions: 125 g/ha, 8 days after application
Method: as §1, §2

velvetleaf [4] = test: Test Example 2: soil surface treatment on upland field; assay type: in vivo, Abutilon theophrasti; conditions: 500 g/ha, 12 days after application
From the text: (§3) In the examples, the compounds are identified by the Compound Numbers as in Tables 1 to 3. […] A cylindrical plastic pot having a diameter of 10 cm and a depth of 10 cm was filled with soil and seeded with velvetleaf. Then each of compounds 1-1, 2-1, 2-2, 3-1 and 3-101 was formulated into an emulsifiable concentrate according to Formulation Example 2 and then diluted to the prescribed amount with water and dilution was uniformly sprayed over the surface of the soil with sprayer at a rate of 1000 liters per hectare. After the application, the test plants were grown in a greenhouse for 12 days, and the herbicidal activity was examined.

ivyleaf morningglory [5] = test: Test Example 3: foliar treatment on upland field (Table 4); assay type: in vivo, Ipomoea hederacea; design: key: 0: little difference in the degree of germination or growth between the treated plants and the untreated plants at the time of examination; 10: the treated plants died completely or their germination or growth was completely inhibited; conditions: examined 16 days after application, index 0-10
Method: (§4) In the examples, the compounds are identified by the Compound Numbers as in Tables 1 to 3. […] A cylindrical plastic pot having a diameter of 10 cm and a depth of 10 cm was filled with soil and seeded with ivyleaf momingglory, velvetleaf and barnyardgrass. These test plants were grown in a greenhouse for 10 days. Then each of compounds listed below was formulated into an emulsifiable concentrate according to Formulation Example 2 and then diluted to the prescribed amount with water containing a spreading agent and the dilution was uniformly sprayed over the foliage of the test plants with sprayer at a rate of 1000 liters per hectare. After the application, the test plants were grown in the greenhouse for 16 days, and the herbicidal activity were determined.

velvetleaf [6] = test: as above; assay type: in vivo, Abutilon theophrasti; design: key: 0: little difference in the degree of germination or growth between the treated plants and the untreated plants at the time of examination; 10: the treated plants died completely or their germination or growth was completely inhibited; conditions: examined 16 days after application, index 0-10
Method: as §4

barnyardgrass [7] = test: as above; assay type: in vivo, Echinochloa crus-galli; design: key: 0: little difference in the degree of germination or growth between the treated plants and the untreated plants at the time of examination; 10: the treated plants died completely or their germination or growth was completely inhibited; conditions: examined 16 days after application, index 0-10
Method: as §4

ivyleaf morningglory [8] = test: Test Example 4: soil surface treatment on upland field (Table 5); assay type: in vivo, Ipomoea hederacea; design: key: 0: little difference in the degree of germination or growth between the treated plants and the untreated plants at the time of examination; 10: the treated plants died completely or their germination or growth was completely inhibited; conditions: 500 g/ha active ingredient, examined 12 days after application, index 0-10
From the text: as §3, with “seeded ivyleaf morningglory, velvetleaf and barnyardgrass.” for “seeded with velvetleaf.”, “compounds listed below” for “compounds 1-1, 2-1, 2-2, 3-1 and 3-101”, “at the” for “at a”

velvetleaf [9] = test: as above; assay type: in vivo, Abutilon theophrasti; design: key: 0: little difference in the degree of germination or growth between the treated plants and the untreated plants at the time of examination; 10: the treated plants died completely or their germination or growth was completely inhibited; conditions: 500 g/ha active ingredient, examined 12 days after application, index 0-10
From the text: as §3, with “seeded ivyleaf morningglory, velvetleaf and barnyardgrass.” for “seeded with velvetleaf.”, “compounds listed below” for “compounds 1-1, 2-1, 2-2, 3-1 and 3-101”, “at the” for “at a”

barnyardgrass [10] = test: as above; assay type: in vivo, Echinochloa crus-galli; design: key: 0: little difference in the degree of germination or growth between the treated plants and the untreated plants at the time of examination; 10: the treated plants died completely or their germination or growth was completely inhibited; conditions: 500 g/ha active ingredient, examined 12 days after application, index 0-10
From the text: as §3, with “seeded ivyleaf morningglory, velvetleaf and barnyardgrass.” for “seeded with velvetleaf.”, “compounds listed below” for “compounds 1-1, 2-1, 2-2, 3-1 and 3-101”, “at the” for “at a”

large crabgrass = test: Test Example 5: foliar treatment on upland field (Table 6); assay type: in vivo, Digitaria sanguinalis; design: key: 0: little difference in the degree of germination or growth between the treated plants and the untreated plants at the time of examination; 10: the treated plants died completely or their germination or growth was completely inhibited; conditions: 125 g/ha, 19 days after application, index 0 to 10
Method: In the examples, the compounds are identified by the Compound Numbers as in Tables 1 to 3. […] A pot for plug seedlings seeded with large crabgrass. The test plant was grown in a greenhouse for 14 days, then transplanted into a plastic pot having an area of 17×12 cm^2 and a depth of 7 cm, and further the test plants were grown in the greenhouse for 8 days. Then each of compounds listed below was formulated into an emulsifiable concentrate according to Formulation Example 2 and then diluted to the prescribed amount with water containing a spreading agent and the dilution was uniformly sprayed over the foliage of the test plants with sprayer at a rate of 1000 liters per hectare. After the application, the test plants were grown in the greenhouse for 19 days, and the herbicidal activity were determined.

## CCOC(=O)C(C)Oc1cccc(COc2cc(-n3c(=O)cc(C(F)(F)F)n(C)c3=O)c(F)cc2Cl)c1 (stereo not shown) [Compound 2-2, Ethyl 2-[3-({2-chloro-4-fluoro-5-[3-methyl-2,6-dioxo-4-(trifluoromethyl)-1,2,3,6-tetrahydropyrimidine-1-yl]phenoxy}methyl)phenoxy]propionate]
Ivyleaf morningglory [1]
  growth of ivyleaf morningglory: completely controlled
Velvetleaf [2]
  growth of velvetleaf: completely controlled
Barnyardgrass [3]
  growth of barnyardgrass: completely controlled
Velvetleaf [4]
  germination of velvetleaf: completely controlled
Ivyleaf morningglory [5]; 125 g/ha active ingredient
  Herbicidal effect Ivyleaf morningglory: 10
Velvetleaf [6]; 125 g/ha active ingredient
  Herbicidal effect Velvetleaf: 10
Barnyardgrass [7]; 125 g/ha active ingredient
  Herbicidal effect Barnyardgrass: 10
Ivyleaf morningglory [8]
  Herbicidal effect Ivyleaf morningglory: 10
Velvetleaf [9]
  Herbicidal effect Velvetleaf: 10
Barnyardgrass [10]
  Herbicidal effect Barnyardgrass: 10
Large crabgrass
  Herbicidal effect Large crabgrass: 10

## COC(=O)C(C)Oc1cccc(C(C)Oc2cc(-n3c(=O)cc(C(F)(F)F)n(C)c3=O)c(F)cc2Cl)c1 (stereo not shown) [Compound 2-21, methyl 2-[3-(1-{2-chloro-4-fluoro-5-[3-methyl-2,6-dioxo-4-(trifluoromethyl)-1,2,3,6-tetrahydropyrimidine-1-yl]phenoxy}ethyl)phenoxy]propionate]
Ivyleaf morningglory [5]; 32 g/ha active ingredient
  Herbicidal effect Ivyleaf morningglory: 10
Velvetleaf [6]; 32 g/ha active ingredient
  Herbicidal effect Velvetleaf: 10
Barnyardgrass [7]; 32 g/ha active ingredient
  Herbicidal effect Barnyardgrass: 10
Ivyleaf morningglory [8]
  Herbicidal effect Ivyleaf morningglory: 10
Velvetleaf [9]
  Herbicidal effect Velvetleaf: 10
Barnyardgrass [10]
  Herbicidal effect Barnyardgrass: 10
Large crabgrass
  Herbicidal effect Large crabgrass: 10

## COC(=O)C(C)Oc1cc(COc2cc(-n3c(=O)cc(C(F)(F)F)n(C)c3=O)c(F)cc2Cl)ccc1Cl (stereo not shown) [Compound 2-41, Methyl 2-[2-chloro-5-({2-chloro-4-fluoro-5-[3-methyl-2,6-dioxo-4-(trifluoromethyl)-1,2,3,6-tetrahydropyrimidine-1-yl]phenoxy}methyl)phenoxy]propionate]
Ivyleaf morningglory [5]; 125 g/ha active ingredient
  Herbicidal effect Ivyleaf morningglory: 10
Velvetleaf [6]; 125 g/ha active ingredient
  Herbicidal effect Velvetleaf: 10
Barnyardgrass [7]; 125 g/ha active ingredient
  Herbicidal effect Barnyardgrass: 10
Ivyleaf morningglory [8]
  Herbicidal effect Ivyleaf morningglory: 10
Velvetleaf [9]
  Herbicidal effect Velvetleaf: 10
Barnyardgrass [10]
  Herbicidal effect Barnyardgrass: 10
Large crabgrass
  Herbicidal effect Large crabgrass: 10

## COC(=O)C(C)Oc1cc(COc2cc(-n3c(=O)cc(C(F)(F)F)n(C)c3=O)c(F)cc2Cl)ccc1OC (stereo not shown) [Compound 2-61, Methyl 2-[5-({2-chloro-4-fluoro-5-[3-methyl-2,6-dioxo-4-(trifluoromethyl)-1,2,3,6-tetrahydropyrimidine-1-yl]phenoxy}methyl)-2-methoxyphenoxy]propionate]
Ivyleaf morningglory [5]; 125 g/ha active ingredient
  Herbicidal effect Ivyleaf morningglory: 10
Velvetleaf [6]; 125 g/ha active ingredient
  Herbicidal effect Velvetleaf: 10
Barnyardgrass [7]; 125 g/ha active ingredient
  Herbicidal effect Barnyardgrass: 10
Ivyleaf morningglory [8]
  Herbicidal effect Ivyleaf morningglory: 10
Velvetleaf [9]
  Herbicidal effect Velvetleaf: 10
Barnyardgrass [10]
  Herbicidal effect Barnyardgrass: 10
Large crabgrass
  Herbicidal effect Large crabgrass: 10

## COC(=O)C(C)Oc1cc(COc2cc(-n3c(=O)cc(C(F)(F)F)n(C)c3=O)c(F)cc2Cl)ccc1C (stereo not shown) [Compound 2-101, Methyl 2-[5-({2-chloro-4-fluoro-5-[3-methyl-2,6-dioxo-4-(trifluoromethyl)-1,2,3,6-tetrahydropyrimidine-1-yl]phenoxy}methyl)-2-methylphenoxy]propionate]
Ivyleaf morningglory [5]; 125 g/ha active ingredient
  Herbicidal effect Ivyleaf morningglory: 10
Velvetleaf [6]; 125 g/ha active ingredient
  Herbicidal effect Velvetleaf: 10
Barnyardgrass [7]; 125 g/ha active ingredient
  Herbicidal effect Barnyardgrass: 10
Ivyleaf morningglory [8]
  Herbicidal effect Ivyleaf morningglory: 10
Velvetleaf [9]
  Herbicidal effect Velvetleaf: 10
Barnyardgrass [10]
  Herbicidal effect Barnyardgrass: 10
Large crabgrass
  Herbicidal effect Large crabgrass: 10

## COC(=O)C(C)Oc1ccc(Cl)c(COc2cc(-n3c(=O)cc(C(F)(F)F)n(C)c3=O)c(F)cc2Cl)c1Cl (stereo not shown) [Compound 2-161, Methyl 2-[2,4-dichloro-3-({2-chloro-4-fluoro-5-[3-methyl-2,6-dioxo-4-(trifluoromethyl)-1,2,3,6-tetrahydropyrimidine-1-yl]phenoxy}methyl)phenoxy]propionate]
Ivyleaf morningglory [5]; 125 g/ha active ingredient
  Herbicidal effect Ivyleaf morningglory: 10
Velvetleaf [6]; 125 g/ha active ingredient
  Herbicidal effect Velvetleaf: 10
Barnyardgrass [7]; 125 g/ha active ingredient
  Herbicidal effect Barnyardgrass: 10
Ivyleaf morningglory [8]
  Herbicidal effect Ivyleaf morningglory: 6
Velvetleaf [9]
  Herbicidal effect Velvetleaf: 10
Barnyardgrass [10]
  Herbicidal effect Barnyardgrass: 5
Large crabgrass
  Herbicidal effect Large crabgrass: 10

## COC(=O)C(C)Oc1ccc(Cl)c(COc2cc(-n3c(=O)cc(C(F)(F)F)n(C)c3=O)c(F)cc2Cl)c1 (stereo not shown) [Compound 2-187, Methyl 2-[4-chloro-3-({2-chloro-4-fluoro-5-[3-methyl −2,6-dioxo-4-(trifluoromethyl)-1,2,3,6-tetrahydropyrimidine-1-yl]phenoxy}methyl)phenoxy]propionate]
Ivyleaf morningglory [5]; 125 g/ha active ingredient
  Herbicidal effect Ivyleaf morningglory: 10
Velvetleaf [6]; 125 g/ha active ingredient
  Herbicidal effect Velvetleaf: 10
Barnyardgrass [7]; 125 g/ha active ingredient
  Herbicidal effect Barnyardgrass: 10
Ivyleaf morningglory [8]
  Herbicidal effect Ivyleaf morningglory: 10
Velvetleaf [9]
  Herbicidal effect Velvetleaf: 10
Barnyardgrass [10]
  Herbicidal effect Barnyardgrass: 9
Large crabgrass
  Herbicidal effect Large crabgrass: 10

## COC(=O)C(C)Oc1ccccc1COc1cc(-n2c(=O)cc(C(F)(F)F)n(C)c2=O)c(F)cc1Cl (stereo not shown) [Compound 3-1, methyl 2-[2-({2-chloro-4-fluoro-5-[3-methyl-2,6-dioxo-4-(trifluoromethyl)-1,2,3,6-tetrahydropyrimidine-1-yl]phenoxy}methyl)phenoxy]propionate]
Ivyleaf morningglory [1]
  growth of ivyleaf morningglory: completely controlled
Velvetleaf [2]
  growth of velvetleaf: completely controlled
Barnyardgrass [3]
  growth of barnyardgrass: completely controlled
Velvetleaf [4]
  germination of velvetleaf: completely controlled

## CCc1ccc(COc2cc(-n3c(=O)cc(C(F)(F)F)n(C)c3=O)c(F)cc2Cl)c(OC(C)C(=O)OC)c1 (stereo not shown) [Compound 3-101, Methyl 2-[2-({2-chloro-4-fluoro-5-[3-methyl-2,6-dioxo-4-(trifluoromethyl)-1,2,3,6-tetrahydropyrimidine-1-yl]phenoxy}methyl)-5-ethylphenoxy]propionate]
Ivyleaf morningglory [1]
  growth of ivyleaf morningglory: completely controlled
Velvetleaf [2]
  growth of velvetleaf: completely controlled
Barnyardgrass [3]
  growth of barnyardgrass: completely controlled
Velvetleaf [4]
  germination of velvetleaf: completely controlled
